In patent publication US8394592B2, “Methods for assessing cancer susceptibility to carcinogens in tobacco products” (The Board of Regents of the University of Texas System, priority 2006, dated 2013):
“And” between values parts separate entries of the source, which are not always exact repeats. Equal values may be shown once.

Tested on: peripheral blood lymphocytes
Test: Cytokinesis-block micronucleus (CBMN) assay, NNK-treated lymphocyte cultures of lung cancer cases and controls
Format: cell-based, human
Parameters: Control Subjects, % with ≧5 NNK-induced MN / Control Subjects, % with 0 or 2 NNK-induced NPBs / Control Subjects, % with 3 or 5 NNK-induced NPBs / Control Subjects, % with 1 NNK-induced NBUDs: concentration or dose not given beside the values; Control Subjects, % with 3 or 4 NNK-induced MN: tested at 0.24 mM
Details: for NNK-induced MN, Mean ± SE / NNK-induced MN, Median / NNK-induced NBUDs, Mean ± SE / NNK-induced NBUDs, Median / NNK-induced NPBs, Mean ± SE / NNK-induced NPBs, Median: 0.24 mM NNK
Protocol: The CBMN test was performed using the cytochalasin B technique described by Fenech and Morley (22) and following recommendations from The International Collaborative Project on Micronucleus Frequency in Human Populations (HUMN Project) to measure MN, NPBs and NBUDs in untreated cells and NNK-treated cells (27). Duplicate lymphocyte cultures were prepared for each study subject. Each culture contained 2.0×10^6 cells in 5 mL RPMI 1640 medium supplemented with 100 U/mL penicillin, 100 μg/mL streptomycin, 10% fetal bovine serum, and 2 mM L-glutamine (Gibco-Invitrogen, Carlsbad, Calif.) and 1% phytohemagglutinin (Remel, Lenexa, Kans.). For the cultures treated with NNK, 24 hours after initiation, the PBLs were centrifuged and the supernatant growth medium was removed and reserved. The PBLs were resuspended in 5 mL of serum-free RPMI 1640 medium supplemented with 0.24 mM NNK (a dose previously used by us and others (23-26) (CAS No. 64091-91-4, National Cancer Institute, Midwest Carcinogen Repository, Kansas City, Mo.; purity>98%) and incubated at 37° C. in the presence of 5% CO2 for 2 hours.
Next, the PBLs were washed twice with serum-free RPMI 1640, transferred to clean tubes and re-incubated for […] in the reserved supernatant. At 44 hours after initiation, cells were blocked in cytokinesis by adding cytochalasin B (Sigma, St. Louis, Mo.; final concentration 4 µg/mL). Similarly, cultures for the determination of spontaneous damage (untreated cells) were handled in the same manner, with the exception of treatment with NNK. The total incubation time for all cultures was 72 hours. After incubation, the cells were fixed in 3:1 methanol:glacial acetic acid, dropped onto clean microscopic slides, air-dried and stained with Giemsa stain. For each sample, 1000 binucleated cells were scored blindly using a Nikon E-400 light optical microscope following the scoring criteria outlined by HUMN Project (2,22,27); the numbers of MN, NPBs, and NBUDs per 1000 binucleated cells were recorded. For quality control, 20% of the slides were randomly selected and blindly rescored and the results compared with the original scoring.

[1] = Case, History of Alcohol Use No
[2] = Case, History of Alcohol Use Yes
[3] = Control, History of Alcohol Use No
[4] = Control, History of Alcohol Use Yes
[5] = MN/1000 binucleated cells, 130 controls
[6] = MN/1000 binucleated cells, 139 cases
[7] = lymphocytes from patients with lung cancer vs controls
[8] = per 1000 binucleated cells, 130 controls
[9] = per 1000 binucleated cells, 139 cases

## CN(CCCC(=O)c1cccnc1)N=O [NNK, 4-(methylnitrosamino)-1-(3-pyridyl)-1-butanone]
Case, Age > 62
  NNK-induced MN, Mean ± SE: 4.54 ± 0.22 per 1000 binucleated cells
  NNK-induced MN, Median: 4.0 per 1000 binucleated cells
  NNK-induced NBUDs, Mean ± SE: 0.90 ± 0.17 per 1000 binucleated cells
  NNK-induced NBUDs, Median: 1.0 per 1000 binucleated cells
  NNK-induced NPBs, Mean ± SE: 8.15 ± 0.33 per 1000 binucleated cells
  NNK-induced NPBs, Median: 8.0 per 1000 binucleated cells
Case, Age ≦ 62
  NNK-induced MN, Mean ± SE: 4.22 ± 0.11 per 1000 binucleated cells
  NNK-induced MN, Median: 4.0 per 1000 binucleated cells
  NNK-induced NBUDs, Mean ± SE: 1.12 ± 0.11 per 1000 binucleated cells
  NNK-induced NBUDs, Median: 1.0 per 1000 binucleated cells
  NNK-induced NPBs, Mean ± SE: 8.11 ± 0.23 per 1000 binucleated cells
  NNK-induced NPBs, Median: 8.0 per 1000 binucleated cells
Case, Females
  NNK-induced MN, Mean ± SE: 4.19 ± 0.17 per 1000 binucleated cells
  NNK-induced MN, Median: 4.0 per 1000 binucleated cells
  NNK-induced NBUDs, Mean ± SE: 1.07 ± 0.12 per 1000 binucleated cells
  NNK-induced NBUDs, Median: 1.0 per 1000 binucleated cells
  NNK-induced NPBs, Mean ± SE: 8.24 ± 0.32 per 1000 binucleated cells
  NNK-induced NPBs, Median: 8.0 per 1000 binucleated cells
[1]
  NNK-induced MN, Mean ± SE: 4.26 ± 0.14 per 1000 binucleated cells
  NNK-induced MN, Median: 4.00 per 1000 binucleated cells
  NNK-induced NBUDs, Mean ± SE: 1.09 ± 0.18 per 1000 binucleated cells
  NNK-induced NBUDs, Median: 1.00 per 1000 binucleated cells
  NNK-induced NPBs, Mean ± SE: 8.04 ± 0.32 per 1000 binucleated cells
  NNK-induced NPBs, Median: 8.00 per 1000 binucleated cells
[2]
  NNK-induced MN, Mean ± SE: 4.37 ± 0.14 per 1000 binucleated cells
  NNK-induced MN, Median: 4.00 per 1000 binucleated cells
  NNK-induced NBUDs, Mean ± SE: 1.04 ± 0.11 per 1000 binucleated cells
  NNK-induced NBUDs, Median: 1.00 per 1000 binucleated cells
  NNK-induced NPBs, Mean ± SE: 8.14 ± 0.24 per 1000 binucleated cells
  NNK-induced NPBs, Median: 8.00 per 1000 binucleated cells
Case, Males
  NNK-induced MN, Mean ± SE: 4.37 ± 0.13 per 1000 binucleated cells
  NNK-induced MN, Median: 4.0 per 1000 binucleated cells
  NNK-induced NBUDs, Mean ± SE: 1.07 ± 0.11 per 1000 binucleated cells
  NNK-induced NBUDs, Median: 1.0 per 1000 binucleated cells
  NNK-induced NPBs, Mean ± SE: 8.07 ± 0.23 per 1000 binucleated cells
  NNK-induced NPBs, Median: 8.0 per 1000 binucleated cells
Case, Overall
  NNK-induced MN, Mean ± SE: 4.32±0.10 per 1000 binucleated cells
  NNK-induced MN, Median: 4.0 per 1000 binucleated cells
  NNK-induced NBUDs, Mean ± SE: 1.07±0.09 per 1000 binucleated cells
  NNK-induced NBUDs, Median: 1.0 per 1000 binucleated cells
  NNK-induced NPBs, Mean ± SE: 8.12±0.19 per 1000 binucleated cells
  NNK-induced NPBs, Median: 8.0 per 1000 binucleated cells
Case, Years smoked > 32
  NNK-induced MN, Mean ± SE: 4.33 ± 0.10 per 1000 binucleated cells
  NNK-induced MN, Median: 4.0 per 1000 binucleated cells
  NNK-induced NBUDs, Mean ± SE: 1.08 ± 0.01 per 1000 binucleated cells
  NNK-induced NBUDs, Median: 1.0 per 1000 binucleated cells
  NNK-induced NPBs, Mean ± SE: 8.07 ± 0.19 per 1000 binucleated cells
  NNK-induced NPBs, Median: 8.0 per 1000 binucleated cells
Case, Years smoked ≦ 32
  NNK-induced MN, Mean ± SE: 3.63 ± 0.32 per 1000 binucleated cells
  NNK-induced MN, Median: 4.0 per 1000 binucleated cells
  NNK-induced NBUDs, Mean ± SE: 1.13 ± 0.44 per 1000 binucleated cells
  NNK-induced NBUDs, Median: 1.0 per 1000 binucleated cells
  NNK-induced NPBs, Mean ± SE: 9.25 ± 0.96 per 1000 binucleated cells
  NNK-induced NPBs, Median: 8.3 per 1000 binucleated cells
Control, Age > 62
  NNK-induced MN, Mean ± SE: 2.75 ± 0.15 per 1000 binucleated cells
  NNK-induced MN, Median: 3.0 per 1000 binucleated cells
  NNK-induced NBUDs, Mean ± SE: 0.10 ± 0.05 per 1000 binucleated cells
  NNK-induced NBUDs, Median: 0.0 per 1000 binucleated cells
  NNK-induced NPBs, Mean ± SE: 2.35 ± 0.14 per 1000 binucleated cells
  NNK-induced NPBs, Median: 2.0 per 1000 binucleated cells
Control, Age ≦ 62
  NNK-induced MN, Mean ± SE: 2.58 ± 0.14 per 1000 binucleated cells
  NNK-induced MN, Median: 2.0 per 1000 binucleated cells
  NNK-induced NBUDs, Mean ± SE: 0.13 ± 0.04 per 1000 binucleated cells
  NNK-induced NBUDs, Median: 0.0 per 1000 binucleated cells
  NNK-induced NPBs, Mean ± SE: 2.41 ± 0.11 per 1000 binucleated cells
  NNK-induced NPBs, Median: 2.0 per 1000 binucleated cells
Control, Females
  NNK-induced MN, Mean ± SE: 2.51 ± 0.23 per 1000 binucleated cells
  NNK-induced MN, Median: 2.0 per 1000 binucleated cells
  NNK-induced NBUDs, Mean ± SE: 0.11 ± 0.05 per 1000 binucleated cells
  NNK-induced NBUDs, Median: 1.0 per 1000 binucleated cells
  NNK-induced NPBs, Mean ± SE: 2.68 ± 0.19 per 1000 binucleated cells
  NNK-induced NPBs, Median: 2.0 per 1000 binucleated cells
[3]
  NNK-induced MN, Mean ± SE: 2.54 ± 0.15 per 1000 binucleated cells
  NNK-induced MN, Median: 3.00 per 1000 binucleated cells
  NNK-induced NBUDs, Mean ± SE: 0.14 ± 0.04 per 1000 binucleated cells
  NNK-induced NBUDs, Median: 0.00 per 1000 binucleated cells
  NNK-induced NPBs, Mean ± SE: 2.40 ± 0.13 per 1000 binucleated cells
  NNK-induced NPBs, Median: 2.00 per 1000 binucleated cells
[4]
  NNK-induced MN, Mean ± SE: 2.61 ± 0.15 per 1000 binucleated cells
  NNK-induced MN, Median: 2.00 per 1000 binucleated cells
  NNK-induced NBUDs, Mean ± SE: 0.11 ± 0.04 per 1000 binucleated cells
  NNK-induced NBUDs, Median: 0.00 per 1000 binucleated cells
  NNK-induced NPBs, Mean ± SE: 2.32 ± 0.12 per 1000 binucleated cells
  NNK-induced NPBs, Median: 2.00 per 1000 binucleated cells
Control, Males
  NNK-induced MN, Mean ± SE: 2.63 ± 0.11 per 1000 binucleated cells
  NNK-induced MN, Median: 3.0 per 1000 binucleated cells
  NNK-induced NBUDs, Mean ± SE: 0.12 ± 0.03 per 1000 binucleated cells
  NNK-induced NBUDs, Median: 0.0 per 1000 binucleated cells
  NNK-induced NPBs, Mean ± SE: 2.27 ± 0.10 per 1000 binucleated cells
  NNK-induced NPBs, Median: 2.0 per 1000 binucleated cells
Control, Overall
  NNK-induced MN, Mean ± SE: 2.62±0.10 per 1000 binucleated cells and 2.62 ± 0.1 per 1000 binucleated cells
  NNK-induced MN, Median: 3.0 per 1000 binucleated cells and 3 per 1000 binucleated cells
  NNK-induced NBUDs, Mean ± SE: 0.12±0.03 per 1000 binucleated cells
  NNK-induced NBUDs, Median: 0.0 per 1000 binucleated cells and 0 per 1000 binucleated cells
  NNK-induced NPBs, Mean ± SE: 2.38±0.09 per 1000 binucleated cells
  NNK-induced NPBs, Median: 2.0 per 1000 binucleated cells and 2 per 1000 binucleated cells
Control, Years smoked > 32
  NNK-induced MN, Mean ± SE: 2.69 ± 0.12 per 1000 binucleated cells
  NNK-induced MN, Median: 3.0 per 1000 binucleated cells
  NNK-induced NBUDs, Mean ± SE: 0.13 ± 0.04 per 1000 binucleated cells
  NNK-induced NBUDs, Median: 0.0 per 1000 binucleated cells
  NNK-induced NPBs, Mean ± SE: 2.39 ± 0.09 per 1000 binucleated cells
  NNK-induced NPBs, Median: 2.0 per 1000 binucleated cells
Control, Years smoked ≦ 32
  NNK-induced MN, Mean ± SE: 2.33 ± 1.02 per 1000 binucleated cells
  NNK-induced MN, Median: 2.0 per 1000 binucleated cells
  NNK-induced NBUDs, Mean ± SE: 0.06 ± 0.04 per 1000 binucleated cells
  NNK-induced NBUDs, Median: 0.0 per 1000 binucleated cells
  NNK-induced NPBs, Mean ± SE: 2.36 ± 0.19 per 1000 binucleated cells
  NNK-induced NPBs, Median: 2.0 per 1000 binucleated cells
[5]
  Control Subjects, % with 1 or 2 NNK-induced MN: 49% and 49.2%
  Control Subjects, % with 3 or 4 NNK-induced MN: 44.6%
  Control Subjects, % with ≧5 NNK-induced MN: 6% and 6.2%
  Control Subjects, No. with 1 or 2 NNK-induced MN: 64
  Control Subjects, No. with 3 or 4 NNK-induced MN: 58
  Control Subjects, No. with ≧5 NNK-induced MN: 8
[6]
  Case Patients, % with 1 or 2 NNK-induced MN: 4% and 3.6%
  Case Patients, % with 3 or 4 NNK-induced MN: 56.1%
  Case Patients, No. with 1 or 2 NNK-induced MN: 5
  Case Patients, No. with 3 or 4 NNK-induced MN: 78
  Case Patients, No. with ≧5 NNK-induced MN: 56
[7]
  Increase in NNK-induced MN frequency, lung cancer patients over controls: 1.6 fold
  Increase in NNK-induced NBUD frequency, lung cancer patients over controls: 8.9 fold
  Increase in NNK-induced NPB frequency, lung cancer patients over controls: 3.4 fold
[8]
  Control Subjects, % with 0 NNK-induced NBUDs: 87% and 86.9%
  Control Subjects, % with 0 or 2 NNK-induced NPBs: 65% and 64.6%
  Control Subjects, % with 1 NNK-induced NBUDs: 11.5%
  Control Subjects, % with 3 or 5 NNK-induced NPBs: 35.4%
  Control Subjects, No. with 0 NNK-induced NBUDs: 113
  Control Subjects, No. with 0 or 2 NNK-induced NPBs: 84
  Control Subjects, No. with 1 NNK-induced NBUDs: 15
  Control Subjects, No. with 3 or 5 NNK-induced NPBs: 46
  Control Subjects, No. with ≧2 NNK-induced NBUDs: 2
  Control Subjects, No. with ≧6 NNK-induced NPBs: 0
[9]
  Case Patients, % with 0 NNK-induced NBUDs: 35% and 34.5%
  Case Patients, % with 1 NNK-induced NBUDs: 42.5%
  Case Patients, % with 3 or 5 NNK-induced NPBs: 10.8%
  Case Patients, No. with 0 NNK-induced NBUDs: 48
  Case Patients, No. with 0 or 2 NNK-induced NPBs: 0
  Case Patients, No. with 1 NNK-induced NBUDs: 59
  Case Patients, No. with 3 or 5 NNK-induced NPBs: 15
  Case Patients, No. with ≧2 NNK-induced NBUDs: 32
  Case Patients, No. with ≧6 NNK-induced NPBs: 124
